± gives the standard deviation of the averaged measurements.
The test systems below were run with COc1cc2c(cc1O)CC[C@@H]1[C@@H]2CC[C@]2(C)[C@@H](O)CC[C@@H]12 [2-METHOXYESTRADIOL] (assay: surviving fraction relative to DMSO-only wells; higher = less growth inhibition). Conditions: 50 nM; exposure time: 5 days.
Procedure, shortened: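 Tumour cell lines were seeded in log phase at 250–500 cells per well into 384-well plates. Starting 24 hours later, inhibitors were present continuously for five days at 0.5, 1, 5, 10, 50, 100, 500 and 1000 nM. Surviving fraction, from CellTiter-Glo luminescence, is normalised to the median of DMSO-only wells. Three screens per line were required, with replicate Pearson r >0.7 and median Z' >0.3 for a line to be kept.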
Test System SUM149.B1*.S BREAST has a surviving fraction of 1.06 ± 0.025. Test System 93VU HEADNECK has a surviving fraction of 1.09 ± 0.058. LM7 BONE was tested, and the surviving fraction was 1.12 ± 0.077. For 143B BONE, the surviving fraction was 1.08 ± 0.071. Work on SUM159 BREAST yielded a surviving fraction of 1.02 ± 0.023. Work on SUM149 BREAST yielded a surviving fraction of 1 ± 0.052. For MDAMB361 BREAST, the surviving fraction was 0.788 ± 0.043. In the case of SAOS2 BONE, the surviving fraction is reported as 1.28 ± 0.21. ASKA SYNOVIAL was tested, and the surviving fraction was 1.1 ± 0.049. HCC1395 BREAST gave a surviving fraction of 1.24 ± 0.027. Work on HCC1954 BREAST yielded a surviving fraction of 0.845 ± 0.019. With CME SYNOVIAL the surviving fraction was 1.26 ± 0.11. In the case of VCAP PROSTATE, the surviving fraction is reported as 0.999 ± 0.075. YAMATO SYNOVIAL showed a surviving fraction of 1.18 ± 0.075. With HCC202 BREAST the surviving fraction was 1.23 ± 0.062. Test System HELA CERVIX has a surviving fraction of 1.06 ± 0.064. Test System SG27 HEADNECK has a surviving fraction of 1.05 ± 0.085. CAL72 BONE was tested, and the surviving fraction was 1.05 ± 0.099. Work on MDAMB134 BREAST yielded a surviving fraction of 0.755 ± 0.097. C33A CERVIX showed a surviving fraction of 0.965 ± 0.031. SKBR3 BREAST was tested, and the surviving fraction was 0.986 ± 0.079. In the case of MHM BONE, the surviving fraction is reported as 1.04 ± 0.029. VP229 BREAST was tested, and the surviving fraction was 1.03 ± 0.15. SYO1 SYNOVIAL showed a surviving fraction of 0.946 ± 0.043. Work on ZR751 BREAST yielded a surviving fraction of 1.06 ± 0.048. KPD BONE gave a surviving fraction of 1.08 ± 0.031. SIHA CERVIX showed a surviving fraction of 0.973 ± 0.047. For DU4475 BREAST, the surviving fraction was 0.782 ± 0.17. For BT549 BREAST, the surviving fraction was 0.968 ± 0.17. COLO320DM LARGE INTESTINE showed a surviving fraction of 1.09 ± 0.15. For T47D BREAST, the surviving fraction was 1.06 ± 0.062. For H23 LUNG, the surviving fraction was 0.975 ± 0.06.

Same assay, conditions: 100 nM; exposure time: 5 days
Test System SUM149.B1*.S BREAST has a surviving fraction of 1.08 ± 0.019. 93VU HEADNECK gave a surviving fraction of 0.921 ± 0.017. LM7 BONE showed a surviving fraction of 1.03 ± 0.13. In the case of 143B BONE, the surviving fraction is reported as 1.09 ± 0.046. SUM159 BREAST gave a surviving fraction of 1.04 ± 0.021. Test System SUM149 BREAST has a surviving fraction of 0.934 ± 0.065. For MDAMB361 BREAST, the surviving fraction was 0.8 ± 0.083. SAOS2 BONE gave a surviving fraction of 1.22 ± 0.051. In the case of ASKA SYNOVIAL, the surviving fraction is reported as 1.03 ± 0.066. With HCC1395 BREAST the surviving fraction was 1.22 ± 0.072. HCC1954 BREAST gave a surviving fraction of 0.742 ± 0.1. CME SYNOVIAL was tested, and the surviving fraction was 1.16 ± 0.15. Test System VCAP PROSTATE has a surviving fraction of 1.06 ± 0.043. For YAMATO SYNOVIAL, the surviving fraction was 1.13 ± 0.11. Work on HCC202 BREAST yielded a surviving fraction of 1.04 ± 0.27. Work on HELA CERVIX yielded a surviving fraction of 1.11 ± 0.077. SG27 HEADNECK showed a surviving fraction of 1.16 ± 0.2. CAL72 BONE gave a surviving fraction of 1.02 ± 0.18. MDAMB134 BREAST showed a surviving fraction of 0.717 ± 0.12. In the case of C33A CERVIX, the surviving fraction is reported as 0.964 ± 0.055. Work on SKBR3 BREAST yielded a surviving fraction of 0.986 ± 0.056. Test System MHM BONE has a surviving fraction of 1.03 ± 0.045. With VP229 BREAST the surviving fraction was 1.18 ± 0.17. Work on SYO1 SYNOVIAL yielded a surviving fraction of 0.9446 ± 0.0033. With ZR751 BREAST the surviving fraction was 1.04 ± 0.098. KPD BONE was tested, and the surviving fraction was 1.07 ± 0.024. For SIHA CERVIX, the surviving fraction was 1.02 ± 0.057. DU4475 BREAST was tested, and the surviving fraction was 0.746 ± 0.066. For BT549 BREAST, the surviving fraction was 1.08 ± 0.14. With COLO320DM LARGE INTESTINE the surviving fraction was 0.965 ± 0.056. For T47D BREAST, the surviving fraction was 1.087 ± 0.0062. H23 LUNG gave a surviving fraction of 1.03 ± 0.021.

Same assay, conditions: 500 nM; exposure time: 5 days
SUM149.B1*.S BREAST gave a surviving fraction of 0.968 ± 0.015. Test System 93VU HEADNECK has a surviving fraction of 0.741 ± 0.049. Test System LM7 BONE has a surviving fraction of 0.5347 ± 0.0023. With 143B BONE the surviving fraction was 0.536 ± 0.069. For SUM159 BREAST, the surviving fraction was 0.9593 ± 0.0093. With SUM149 BREAST the surviving fraction was 0.442 ± 0.052. MDAMB361 BREAST was tested, and the surviving fraction was 0.666 ± 0.014. For SAOS2 BONE, the surviving fraction was 0.769 ± 0.076. Test System ASKA SYNOVIAL has a surviving fraction of 0.503 ± 0.039. Work on HCC1395 BREAST yielded a surviving fraction of 1.17 ± 0.083. For HCC1954 BREAST, the surviving fraction was 0.716 ± 0.034. CME SYNOVIAL gave a surviving fraction of 0.711 ± 0.14. VCAP PROSTATE gave a surviving fraction of 0.777 ± 0.069. Work on YAMATO SYNOVIAL yielded a surviving fraction of 0.521 ± 0.04. For HCC202 BREAST, the surviving fraction was 0.713 ± 0.32. HELA CERVIX showed a surviving fraction of 0.593 ± 0.045. In the case of SG27 HEADNECK, the surviving fraction is reported as 1.09 ± 0.062. CAL72 BONE gave a surviving fraction of 0.848 ± 0.12. Test System MDAMB134 BREAST has a surviving fraction of 0.56 ± 0.0085. C33A CERVIX showed a surviving fraction of 0.482 ± 0.087. For SKBR3 BREAST, the surviving fraction was 0.882 ± 0.099. MHM BONE gave a surviving fraction of 0.975 ± 0.015. With VP229 BREAST the surviving fraction was 0.981 ± 0.058. In the case of SYO1 SYNOVIAL, the surviving fraction is reported as 0.441 ± 0.065. ZR751 BREAST was tested, and the surviving fraction was 1.07 ± 0.039. KPD BONE gave a surviving fraction of 0.784 ± 0.047. In the case of SIHA CERVIX, the surviving fraction is reported as 0.719 ± 0.062. Work on DU4475 BREAST yielded a surviving fraction of 0.452 ± 0.12. In the case of BT549 BREAST, the surviving fraction is reported as 0.53 ± 0.092. For COLO320DM LARGE INTESTINE, the surviving fraction was 0.3693 ± 0.0033. Test System T47D BREAST has a surviving fraction of 0.783 ± 0.033. In the case of H23 LUNG, the surviving fraction is reported as 0.749 ± 0.019.

Same assay, conditions: 1000 nM; exposure time: 5 days
SUM149.B1*.S BREAST was tested, and the surviving fraction was 0.628 ± 0.036. 93VU HEADNECK showed a surviving fraction of 0.788 ± 0.034. Test System LM7 BONE has a surviving fraction of 0.264 ± 0.024. Work on 143B BONE yielded a surviving fraction of 0.159 ± 0.016. For SUM159 BREAST, the surviving fraction was 0.562 ± 0.074. Work on SUM149 BREAST yielded a surviving fraction of 0.133 ± 0.022. Work on MDAMB361 BREAST yielded a surviving fraction of 0.701 ± 0.081. In the case of SAOS2 BONE, the surviving fraction is reported as 0.272 ± 0.013. In the case of ASKA SYNOVIAL, the surviving fraction is reported as 0.353 ± 0.015. Work on HCC1395 BREAST yielded a surviving fraction of 0.907 ± 0.088. Work on HCC1954 BREAST yielded a surviving fraction of 0.515 ± 0.029. In the case of CME SYNOVIAL, the surviving fraction is reported as 0.38 ± 0.027. With VCAP PROSTATE the surviving fraction was 0.231 ± 0.059. YAMATO SYNOVIAL gave a surviving fraction of 0.445 ± 0.031. HCC202 BREAST showed a surviving fraction of 0.564 ± 0.23. HELA CERVIX showed a surviving fraction of 0.0965 ± 0.0045. SG27 HEADNECK was tested, and the surviving fraction was 1.03 ± 0.079. For CAL72 BONE, the surviving fraction was 0.447 ± 0.2. Test System MDAMB134 BREAST has a surviving fraction of 0.619 ± 0.15. Test System C33A CERVIX has a surviving fraction of 0.595 ± 0.028. SKBR3 BREAST was tested, and the surviving fraction was 0.548 ± 0.051. MHM BONE was tested, and the surviving fraction was 0.673 ± 0.048. With VP229 BREAST the surviving fraction was 0.801 ± 0.11. With SYO1 SYNOVIAL the surviving fraction was 0.1008 ± 0.00069. Test System ZR751 BREAST has a surviving fraction of 0.645 ± 0.11. KPD BONE showed a surviving fraction of 0.551 ± 0.026. Test System SIHA CERVIX has a surviving fraction of 0.611 ± 0.072. DU4475 BREAST gave a surviving fraction of 0.114 ± 0.044. BT549 BREAST showed a surviving fraction of 0.106 ± 0.044. Test System COLO320DM LARGE INTESTINE has a surviving fraction of 0.266 ± 0.0093. T47D BREAST showed a surviving fraction of 0.543 ± 0.037. For H23 LUNG, the surviving fraction was 0.265 ± 0.004.

Source: the supplement of paper PMC6045584
